According to ChEMBL document CHEMBL1148637, “The combi-targeting concept: synthesis of stable nitrosoureas designed to inhibit the epidermal growth factor receptor (EGFR)” (J Med Chem, 2006):

Legend:
[1] = system: NIH3T3; test: Inhibition of serum-stimulated proliferation of mouse NIH3T3 cell line after 24 hrs; format: functional, cell-based; conditions: NIH3T3, 24 h
[2] = biological target: Epidermal growth factor receptor (Homo sapiens, UniProt P00533); test: Inhibition of EGFR tyrosine kinase
Chain of Epidermal growth factor receptor (P00533 whole entry): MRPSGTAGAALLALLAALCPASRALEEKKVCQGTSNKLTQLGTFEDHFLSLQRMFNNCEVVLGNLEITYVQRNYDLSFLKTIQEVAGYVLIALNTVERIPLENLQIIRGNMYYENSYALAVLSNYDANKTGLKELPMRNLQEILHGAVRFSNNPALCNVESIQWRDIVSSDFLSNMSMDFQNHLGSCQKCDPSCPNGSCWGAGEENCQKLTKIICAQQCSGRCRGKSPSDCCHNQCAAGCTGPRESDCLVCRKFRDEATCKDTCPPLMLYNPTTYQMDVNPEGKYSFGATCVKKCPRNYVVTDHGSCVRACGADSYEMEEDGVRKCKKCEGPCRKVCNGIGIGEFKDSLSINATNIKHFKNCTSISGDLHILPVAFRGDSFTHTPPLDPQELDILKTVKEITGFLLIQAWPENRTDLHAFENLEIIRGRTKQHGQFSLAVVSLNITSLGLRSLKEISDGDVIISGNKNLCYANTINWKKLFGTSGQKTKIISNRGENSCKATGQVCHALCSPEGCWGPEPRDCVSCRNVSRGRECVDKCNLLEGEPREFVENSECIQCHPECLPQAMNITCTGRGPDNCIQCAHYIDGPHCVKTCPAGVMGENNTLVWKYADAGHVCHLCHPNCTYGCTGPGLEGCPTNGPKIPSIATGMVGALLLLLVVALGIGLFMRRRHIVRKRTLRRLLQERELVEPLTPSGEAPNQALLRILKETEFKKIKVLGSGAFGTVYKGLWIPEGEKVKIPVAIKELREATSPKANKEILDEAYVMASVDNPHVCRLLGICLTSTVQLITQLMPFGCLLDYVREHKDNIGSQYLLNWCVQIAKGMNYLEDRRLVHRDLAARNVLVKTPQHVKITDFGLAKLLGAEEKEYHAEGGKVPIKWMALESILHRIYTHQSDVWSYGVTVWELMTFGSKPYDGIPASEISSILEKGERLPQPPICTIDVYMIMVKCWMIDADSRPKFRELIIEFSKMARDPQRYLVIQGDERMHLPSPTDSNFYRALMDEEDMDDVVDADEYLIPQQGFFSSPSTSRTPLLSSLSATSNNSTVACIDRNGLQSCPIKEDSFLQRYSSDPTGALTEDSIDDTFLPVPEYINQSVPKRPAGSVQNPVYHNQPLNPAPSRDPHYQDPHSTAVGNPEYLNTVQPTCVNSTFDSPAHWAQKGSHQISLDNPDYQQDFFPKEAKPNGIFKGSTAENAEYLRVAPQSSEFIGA

SMILES	IC50 [1]	IC50 [2]
O=C(NCCCl)Nc1ccc2ncnc(Nc3cccc(Br)c3)c2c1	35.9 µM	0.018 µM
Cc1cccc(Nc2ncnc3ccc(NC(=O)NCCCl)cc23)c1	31 µM	0.676 µM
CNc1ccc2ncnc(Nc3cccc(C)c3)c2c1	42.8 µM	0.011 µM
CNc1ccc2ncnc(Nc3cccc(Cl)c3)c2c1	49.8 µM	0.004 µM
Cc1cccc(Nc2ncnc3ccc(N(C)C(=O)N(CCCl)N=O)cc23)c1	16.5 µM	–
CN(C(=O)N(CCCl)N=O)c1ccc2ncnc(Nc3cccc(Cl)c3)c2c1	11.7 µM	0.204 µM
O=C(NCCCl)Nc1ccc2ncnc(Nc3cccc(Cl)c3)c2c1	157 µM	0.022 µM
Cc1cccc(Nc2ncnc3ccc(NC(=O)N(CCCl)N=O)cc23)c1	78.5 µM	1.06 µM
O=NN(CCCl)C(=O)Nc1ccc2ncnc(Nc3cccc(Cl)c3)c2c1	157 µM	–
O=NN(CCCl)C(=O)Nc1ccc2ncnc(Nc3cccc(Br)c3)c2c1	36.4 µM	0.047 µM
CN(C(=O)N(CCCl)N=O)c1ccc2ncnc(Nc3cccc(Br)c3)c2c1	10.8 µM	0.294 µM
Cc1cccc(Nc2ncnc3ccc(N)cc23)c1	44.2 µM	–
Nc1ccc2ncnc(Nc3cccc(Cl)c3)c2c1	97 µM	–
CNc1ccc2ncnc(Nc3cccc(Br)c3)c2c1	17.6 µM	0.005 µM
Nc1ccc2ncnc(Nc3cccc(Br)c3)c2c1	26.7 µM	–
